Assay results as given in patent publication US20090005435A1, “Novel Compounds, Pharmaceutical Compositions Containing Same, and Methods of Use for Same” (priority 2004, published 2009).

Legend:
purified human FAS = molecular target: T1, purified human FAS (Homo sapiens, UniProt P49327); assay: FAS enzymatic activity (malonyl-CoA dependent NADPH oxidation); format: biochemical; conditions: for IC50: (SB)
T1 construct: Human FAS was purified from cultured ZR-75-1 human breast cancer cells; endogenous in cells; host or cells: ZR-75-1 human breast cancer cells (ATCC); enzyme purified by PEG precipitation and Mono Q chromatography
T1 sequence (P49327 whole entry): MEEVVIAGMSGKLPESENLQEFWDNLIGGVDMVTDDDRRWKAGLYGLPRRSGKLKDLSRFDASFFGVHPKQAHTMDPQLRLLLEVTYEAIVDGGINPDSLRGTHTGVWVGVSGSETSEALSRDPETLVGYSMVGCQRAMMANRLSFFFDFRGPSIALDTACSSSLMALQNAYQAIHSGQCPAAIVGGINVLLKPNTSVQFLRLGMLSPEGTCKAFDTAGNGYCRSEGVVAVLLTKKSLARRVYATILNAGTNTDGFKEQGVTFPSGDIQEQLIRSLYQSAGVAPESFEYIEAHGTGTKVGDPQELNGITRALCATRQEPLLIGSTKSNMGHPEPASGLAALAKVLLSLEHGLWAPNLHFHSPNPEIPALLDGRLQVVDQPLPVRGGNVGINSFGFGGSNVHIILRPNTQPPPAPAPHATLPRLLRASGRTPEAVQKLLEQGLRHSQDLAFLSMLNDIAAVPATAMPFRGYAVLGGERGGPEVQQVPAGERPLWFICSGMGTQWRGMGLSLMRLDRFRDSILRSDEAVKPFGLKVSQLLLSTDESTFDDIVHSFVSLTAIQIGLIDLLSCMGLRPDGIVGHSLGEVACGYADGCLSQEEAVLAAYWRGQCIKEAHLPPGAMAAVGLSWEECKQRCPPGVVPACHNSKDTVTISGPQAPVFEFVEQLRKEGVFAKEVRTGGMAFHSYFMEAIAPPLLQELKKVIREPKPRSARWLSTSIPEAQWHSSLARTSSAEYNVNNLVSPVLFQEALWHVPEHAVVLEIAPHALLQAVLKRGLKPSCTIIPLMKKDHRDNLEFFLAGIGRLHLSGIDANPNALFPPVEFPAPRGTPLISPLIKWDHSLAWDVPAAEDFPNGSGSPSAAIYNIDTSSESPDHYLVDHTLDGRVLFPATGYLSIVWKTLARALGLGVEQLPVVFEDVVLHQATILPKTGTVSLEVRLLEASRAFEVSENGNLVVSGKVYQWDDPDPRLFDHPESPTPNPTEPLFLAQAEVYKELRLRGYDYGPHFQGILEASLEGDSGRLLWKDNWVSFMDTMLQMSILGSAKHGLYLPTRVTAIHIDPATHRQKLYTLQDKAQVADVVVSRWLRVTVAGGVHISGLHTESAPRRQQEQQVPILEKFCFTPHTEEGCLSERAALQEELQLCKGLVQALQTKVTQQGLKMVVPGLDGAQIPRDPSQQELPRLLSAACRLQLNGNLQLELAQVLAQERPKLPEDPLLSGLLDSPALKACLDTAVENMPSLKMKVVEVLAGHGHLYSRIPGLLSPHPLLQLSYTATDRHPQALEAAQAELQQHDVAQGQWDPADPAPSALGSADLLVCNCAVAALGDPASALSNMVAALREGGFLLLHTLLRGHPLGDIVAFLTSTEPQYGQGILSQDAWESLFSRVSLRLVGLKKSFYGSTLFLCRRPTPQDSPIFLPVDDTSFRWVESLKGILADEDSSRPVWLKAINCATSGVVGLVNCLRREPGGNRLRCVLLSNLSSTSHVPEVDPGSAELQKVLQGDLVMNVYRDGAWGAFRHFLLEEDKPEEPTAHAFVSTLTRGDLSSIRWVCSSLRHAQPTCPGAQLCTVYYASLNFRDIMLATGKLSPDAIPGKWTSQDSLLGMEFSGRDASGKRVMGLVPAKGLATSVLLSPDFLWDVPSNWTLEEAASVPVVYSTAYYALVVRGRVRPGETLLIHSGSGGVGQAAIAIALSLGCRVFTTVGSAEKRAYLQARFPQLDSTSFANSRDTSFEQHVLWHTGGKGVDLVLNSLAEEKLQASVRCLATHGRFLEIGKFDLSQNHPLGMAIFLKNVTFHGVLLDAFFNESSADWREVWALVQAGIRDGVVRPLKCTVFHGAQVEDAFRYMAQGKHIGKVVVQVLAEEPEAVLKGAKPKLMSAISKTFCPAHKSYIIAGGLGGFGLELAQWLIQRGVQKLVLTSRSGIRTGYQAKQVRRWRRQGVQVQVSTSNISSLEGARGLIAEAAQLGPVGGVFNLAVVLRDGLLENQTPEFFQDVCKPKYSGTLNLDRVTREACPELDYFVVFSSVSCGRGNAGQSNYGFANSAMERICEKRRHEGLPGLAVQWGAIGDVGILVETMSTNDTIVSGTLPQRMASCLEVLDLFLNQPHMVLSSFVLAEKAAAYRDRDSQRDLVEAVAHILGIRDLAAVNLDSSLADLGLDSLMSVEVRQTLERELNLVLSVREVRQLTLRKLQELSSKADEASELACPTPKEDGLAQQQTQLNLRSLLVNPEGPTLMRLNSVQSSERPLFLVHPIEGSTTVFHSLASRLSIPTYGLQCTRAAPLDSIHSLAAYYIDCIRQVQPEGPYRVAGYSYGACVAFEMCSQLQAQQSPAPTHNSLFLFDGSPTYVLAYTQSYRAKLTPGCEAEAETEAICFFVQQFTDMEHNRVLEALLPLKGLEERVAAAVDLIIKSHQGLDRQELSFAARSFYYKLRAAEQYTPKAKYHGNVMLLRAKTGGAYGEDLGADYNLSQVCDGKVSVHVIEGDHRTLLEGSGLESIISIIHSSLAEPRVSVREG
Procedure: Purification of FAS from ZR-75-1 Human Breast Cancer Cells.
Human FAS was purified from cultured ZR-75-1 human breast cancer cells obtained from the American Type Culture Collection. The procedure, adapted from Linn et al., 1981, and Kuhajda et al., 1994, utilizes hypotonic lysis, successive polyethyleneglycol (PEG) precipitations, and anion exchange chromatography. ZR-75-1 cells are cultured at 37° C. with 5% CO2 in RPMI culture medium with 10% fetal bovine serum, penicillin and streptomycin.
Ten T150 flasks of confluent cells are lysed with 1.5 ml lysis buffer (20 mM Tris-HCl, pH 7.5, 1 mM EDTA, 0.1 mM phenylmethanesulfonyl fluoride (PMSF), 0.1% Igepal CA-630) and dounce homogenized on ice for 20 strokes. The lysate is centrifuged in JA-20 rotor (Beckman) at 20,000 rpm for 30 minutes at 4° C. and the supernatant is brought to 42 ml with lysis buffer. A solution of 50% PEG 8000 in lysis buffer is added slowly to the supernatant to a final concentration of 7.5%. After rocking for 60 minutes at 4° C., the solution is centrifuged in JA-20 rotor (Beckman) at 15,000 rpm for 30 minutes at 4° C. Solid PEG 8000 is then added to the supernatant to a final concentration of 15%. After the rocking and centrifugation is repeated as above, the pellet is resuspended overnight at 4° C. in 10 ml of Buffer A (20 mM K2HPO4, pH 7.4). After […] filtration, the protein solution is applied to a Mono Q 5/5 anion exchange column (Pharmacia). The column is washed for 15 minutes with buffer A at 1 ml/minute, and bound material is eluted with a linear 60-ml gradient over 60 minutes to 1 M KCl. FAS (MW˜270 kD) typically elutes at 0.25 M KCl in three 0.5 ml fractions identified using 4-15% SDS-PAGE with Coomassie G250 stain (Bio-Rad). FAS protein concentration is determined using the Coomassie Plus Protein Assay Reagent (Pierce) according to manufacturer's specifications using BSA as a standard. This procedure results in substantially pure preparations of FAS (>95%) as judged by Coomassie-stained gels.
Measurement of FAS Enzymatic Activity and Determination of the IC50 of the Compounds
FAS activity is measured by monitoring the malonyl-CoA dependent oxidation of NADPH spectrophotometrically at OD340 in 96-well plates (Dils et al and Arslanian et al, 1975). Each well contains 2 μg purified FAS, 100 mM K2HPO4, pH 6.5, 1 mM dithiothreitol (Sigma), and 187.5 μM β-NADPH (Sigma). Stock solutions of inhibitors are prepared in DMSO at 2, 1, and 0.5 mg/ml resulting in final concentrations of 20, 10, and 5 μg/ml when 1 μl of stock is added per well. For each experiment, cerulenin (Sigma) is run as a positive control along with DMSO controls, inhibitors, and blanks (no FAS enzyme) all in duplicate.
The assay is performed on a Molecular Devices SpectraMax Plus Spectrophotometer. The plate containing FAS, buffers, inhibitors, and controls are placed in the spectrophotometer heated to 37° C. Using the kinetic protocol, the wells are blanked on duplicate wells containing 100 μl of 100 mM K2HPO4, pH 6.5 and the plate is read at OD340 at 10 sec intervals for 5 minutes to measure any malonyl-CoA independent oxidation of NADPH. The plate is removed from the spectrophotometer and malonyl-CoA (67.4 μM, final concentration per well) and […] (61.8 μM, final concentration per well) are added to each well except to the blanks. The plate is read again as above with the kinetic protocol to measure the malonyl-CoA dependent NADPH oxidation. The difference between the Δ OD340 for the malonyl-CoA dependent and non-malonyl-CoA dependent NADPH oxidation is the specific FAS activity. Because of the purity of the FAS preparation, non-malonyl-CoA dependent NADPH oxidation is negligible.
The IC50 for the compounds against FAS is determined by plotting the Δ OD340 for each inhibitor concentration tested, performing linear regression and computing the best-fit line, r^2 values, and 95% confidence intervals. The concentration of compound yielding 50% inhibition of FAS is the IC50. […]

[1] = test system: fatty acid synthesis in MCF-7 human breast cancer cells; assay: [14C]acetate incorporation into total lipids; format: cell-based; conditions: MCF-7 cells
Procedure: Measurement of [^14C]acetate Incorporation into Total Lipids and Determination of IC50 of Compounds
This assay measures the incorporation of [^14C]acetate into total lipids and is a measure of fatty acid synthesis pathway activity in vitro. It is utilized to measure inhibition of fatty acid synthesis in vitro.
MCF-7 human breast cancer cells cultured as above, are plated at 5×10^4 cells per well in 24-well plates. Following overnight incubation, the compounds to be tested, solubilized in DMSO, are added at 5, 10, and 20 μg/ml in triplicate, with lower concentrations tested if necessary. DMSO is added to triplicate wells for a vehicle control. C75 is run at 5 and 10 μg/ml in triplicate as positive controls. After 4 hours of incubation, 0.25 μCi of [^14C]acetate (10 μl volume) is added to each well.
After 2 hours of additional incubation, medium is aspirated from the wells and 800 μl of chloroform:methanol (2:1) and 700 μl of 4 mM MgCl2 is added to each well. Contents of each well are transferred to 1.5 Eppendorf tubes, and spun at full-speed for 2 minutes in a high-speed Eppendorf Microcentrifuge 5415D. After removal of the aqueous (upper) layer, an additional 700 μl of chloroform:methanol (2:1) and 500 μl of 4 mM MgCl2 are added to each tube and then centrifuged for 1 minutes as above. […] Once dried, 3 ml of scintillant (APB #NBC5104) is added and vials are counted for ^14C. […]

| IC50 (purified human FAS) [µM] | SMILES | 14C (IC50) [1] | FAS (IC50) (purified human FAS) |
| --- | --- | --- | --- |
| 854 | CCCCCCCCCCC1(C)SC(=O)C(C)(C)C1=O (centres unmarked) [Compound 12, 3,3,5-Trimethyl-5-decyl-thiophene-2,4-dione] |  |  |
| 804 | C=CCC1(CC=C)C(=O)SC(C)(CCCCCCCCCC)C1=O (centres unmarked) [Compound 15, 3,3-Diallyl-5-methyl-5-decyl-thiophene-2,4-dione] |  |  |

| SMILES | IC50 (purified human FAS) [µM] | 14C (IC50) [1] | FAS (IC50) (purified human FAS) |
| --- | --- | --- | --- |
| C=CCC1(CC=C)C(=O)SC(C)(CCCCCCCC)C1=O (racemic) [Compound 4, 3,3-Diallyl-5-methyl-5-octyl-thiophene-2,4-dione] | 884 | Neg | Neg |
